Where a name gives a salt, the structure may show the parent alone.
What was measured:
[1] = system: DLD-1 BRCA2(−/−) colorectal adenocarcinoma cells; experiment: Cell viability assay (Cell Titer-Glo), DLD-1 BRCA2(−/−); assay type: cell-based; conditions: Homo sapiens, DLD-1, 168 h; 7 days incubation, 200 cells/well
How it was run: (§1)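 Isogenic DLD-1 wild-type (50 cells/well) and BRCA2(−/−) (200 cells/well) lines treated after overnight attachment, 7 days at 37 °C, 5% CO2. Ten-point dilutions (e.g. 1.5 nM–30 μM) or single dose; CellTiter-Glo luminescence; IC50 from four-parameter fit, plus % inhibition at 10 μM.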

PARP1 = PARP1 (Homo sapiens, UniProt P09874); experiment: PARP1 biochemical trapping assay (BPS PARPtrap)
Chain of PARP1 (P09874 whole entry, the tested form may be a part): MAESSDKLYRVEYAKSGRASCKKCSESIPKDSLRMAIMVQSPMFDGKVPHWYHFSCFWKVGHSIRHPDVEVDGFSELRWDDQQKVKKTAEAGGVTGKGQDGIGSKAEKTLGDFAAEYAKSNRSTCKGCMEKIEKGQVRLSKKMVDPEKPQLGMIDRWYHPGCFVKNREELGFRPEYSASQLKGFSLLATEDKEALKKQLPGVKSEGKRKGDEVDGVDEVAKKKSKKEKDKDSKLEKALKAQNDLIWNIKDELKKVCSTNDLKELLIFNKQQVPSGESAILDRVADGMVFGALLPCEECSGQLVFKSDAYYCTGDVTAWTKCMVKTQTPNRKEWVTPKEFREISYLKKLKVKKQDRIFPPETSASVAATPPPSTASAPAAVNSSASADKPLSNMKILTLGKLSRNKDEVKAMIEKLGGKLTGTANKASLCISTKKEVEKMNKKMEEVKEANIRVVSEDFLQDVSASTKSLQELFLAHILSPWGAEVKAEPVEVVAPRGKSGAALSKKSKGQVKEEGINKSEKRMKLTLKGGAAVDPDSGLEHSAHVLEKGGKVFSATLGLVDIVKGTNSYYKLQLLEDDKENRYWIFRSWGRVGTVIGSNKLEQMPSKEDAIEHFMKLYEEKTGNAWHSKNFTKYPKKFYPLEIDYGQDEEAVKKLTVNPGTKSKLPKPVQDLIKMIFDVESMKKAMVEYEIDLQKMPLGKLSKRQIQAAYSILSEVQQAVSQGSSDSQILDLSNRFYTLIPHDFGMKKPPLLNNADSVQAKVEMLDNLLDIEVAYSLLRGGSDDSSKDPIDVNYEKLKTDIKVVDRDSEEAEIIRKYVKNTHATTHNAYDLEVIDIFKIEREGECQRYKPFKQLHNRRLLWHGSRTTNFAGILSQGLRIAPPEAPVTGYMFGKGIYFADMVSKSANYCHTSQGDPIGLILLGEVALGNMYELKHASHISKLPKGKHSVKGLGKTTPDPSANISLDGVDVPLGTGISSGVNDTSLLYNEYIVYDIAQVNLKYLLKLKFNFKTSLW
Experimental: Compounds of the present disclosure were tested in a PARP1 biochemical trapping assay at BPS Bioscience (San Diego, CA). PARP1 is known to bind damaged DNA through its DNA-binding domains. Binding to DNA activates PARP1, and in the presence of NAD+, PARP1 ribosylates itself (auto-ribosylation), leading to PARP1 dissociation from the DNA due to the accumulated negative charge of the ribosyl polymer. In the presence of some inhibitors, however, PARP remains bound to the DNA, a phenomenon termed trapping.
The BPS PARPtrap assay kit for PARP1 (BPS Catalog #80584) was used. A series of dilutions of the compounds were prepared with 10% DMSO in water. The final concentration of DMSO was 1% in all reactions. The enzymatic reactions were conducted in duplicates at room temperature in a 96-well plate. The 45 μl reaction mixtures in PARPtrap buffer 1 containing PARP1 fluorescent labelled oligonucleotide duplex, PARP enzyme and the test compound were incubated at room temperature for 10 min. After pre-incubation, the enzymatic reaction was initiated by adding 5 μl of 10×NAD+ solution. The reaction was incubated for 45-60 min at room temperature.
Fluorescence polarization was measured at an excitation of 470 nm and an emission of 518 nm using a Tecan Infinite M1000 microplate reader. The blank value was subtracted from all other values. Fluorescence polarization was analyzed by Tecan Magellan 6 software and wells containing DNA were used as references. The fluorescence polarization data were then evaluated using GraphPad Prism software. The fluorescence polarization in absence of the compound in each data set was defined as 0% activity (FPo), while the fluorescence polarization in the absence of both NAD+ and the compound was defined as 100% activity (FPt). The percent activity in the presence of the compound was calculated according to the equation % activity=[FP−FPo]/[(FPt−FPo)]×100, where FP=the fluorescence polarization in the presence of the compound.
The values of % activity versus a series of compound concentrations were then plotted using non-linear regression analysis of a sigmoidal dose-response curve generated with the equation Y=B+(T−B)/1+10^((LogEC50−X)×Hill Slope), where Y=percent activity, B=minimum percent activity, T=maximum percent activity, X=logarithm of compound and Hill Slope=slope factor or Hill coefficient. The EC50 value was determined by the concentration causing a half-maximal percent activity. EC50 values are shown in Table C and are presented in ranges, in which “+++”<300 nM, 300 nM≤“++”<3000 nM, and “+”≥3000 nM.

[2] = system: DLD-1 wild-type colorectal adenocarcinoma cells; experiment: Cell viability assay (Cell Titer-Glo), DLD-1 wild-type; assay type: cell-based; conditions: Homo sapiens, DLD-1, 168 h, 7 days incubation; for inhibition at 10 µM: read-out: DLD-1 wild-type % inh at 10 μM; for IC50: 50 cells/well
How it was run: as §1

recombinant human PARP2 = recombinant human PARP2 (Homo sapiens, UniProt Q9UGN5); experiment: PARP2 fluorescence polarization binding assay; conditions: for IC50: binding IC50, GST-tagged PARP2 20 nM, PARPi-FL 3 nM; for inhibition at 10 µM: read-out: PARP2 % inh at 10 μM
Chain of recombinant human PARP2 (Q9UGN5 whole entry): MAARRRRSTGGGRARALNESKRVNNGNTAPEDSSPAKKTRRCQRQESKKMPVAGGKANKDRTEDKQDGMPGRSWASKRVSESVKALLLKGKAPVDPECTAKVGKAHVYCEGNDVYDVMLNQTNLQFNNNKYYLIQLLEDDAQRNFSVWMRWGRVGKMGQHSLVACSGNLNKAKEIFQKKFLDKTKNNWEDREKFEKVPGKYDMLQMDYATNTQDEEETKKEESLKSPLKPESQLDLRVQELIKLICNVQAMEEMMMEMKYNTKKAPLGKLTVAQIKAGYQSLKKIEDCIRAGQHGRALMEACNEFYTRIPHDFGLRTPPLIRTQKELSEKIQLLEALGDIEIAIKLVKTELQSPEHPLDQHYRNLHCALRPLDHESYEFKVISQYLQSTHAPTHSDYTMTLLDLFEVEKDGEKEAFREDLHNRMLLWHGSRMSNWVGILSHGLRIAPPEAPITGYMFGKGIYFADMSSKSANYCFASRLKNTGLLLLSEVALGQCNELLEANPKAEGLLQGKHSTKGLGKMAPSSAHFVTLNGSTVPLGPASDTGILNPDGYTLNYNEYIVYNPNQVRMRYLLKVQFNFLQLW
How it was run: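 GST-tagged PARP2, added at 40 nM in 50 mM Tris pH 8.0, 0.001% Triton X-100, 10 mM MgCl2, 150 mM NaCl, was preincubated 30 min at RT with compound (10-point 3-fold series or single concentration). PARPi-FL probe was then added at 6 nM for 4 h. IC50 was fitted from fluorescence polarization (ex 480/em 535 nm) with floating top and bottom.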

SMILES | IC50 [1] [nM] | EC50 (PARP1) [nM] | inhibition at 10 µM [2] [%] | IC50 [2] [nM] | IC50 (recombinant human PARP2) [nM] | inhibition at 10 µM (recombinant human PARP2) [%]
CCn1c(=O)[nH]c2cc(CN3CCN(c4ccc(C(=O)NC)nc4C)CC3)ccc2c1=S [Compound 51, 5-(4-((3-ethyl-2-oxo-4-thioxo-1,2,3,4-tetrahydroquinazolin-7-yl)methyl)piperazin-1-yl)-N,6-dimethylpicolinamide formate] | < 300 | 300 to 3000 | > 67 | > 3000 | > 3000 | 33 to 67
CCn1c(=O)[nH]c2cc(CN3CCN(c4ccc(C(=O)NC)nc4C)CC3)ccc2c1=O [Compound 16, 5-{4-[(3-ethyl-2,4-dioxo-1H-quinazolin-7-yl)methyl]piperazin-1-yl}-N,6-dimethylpyridine-2-carboxamide] | < 300 | < 300 | < 33 | > 3000 | > 3000 | 33 to 67
CCn1c(=O)[nH]c2cc(CN3CCN(c4ccc(C(=O)NC)nc4C)CC3)sc2c1=O [Compound 188, 5-(4-((3-ethyl-2,4-dioxo-1,2,3,4-tetrahydrothieno[3,2-d]pyrimidin-6-yl)methyl)piperazin-1-yl)-N,6-dimethylpicolinamide] | < 300 | 300 to 3000 | < 33 | > 3000 | > 3000 | 33 to 67
CCn1c(=O)[nH]c2cc(CN3CCN(c4ccc(C(=O)NC)nc4)CC3)ccc2c1=O [Compound 3, 5-(4-((3-ethyl-2,4-dioxo-1,2,3,4-tetrahydroquinazolin-7-yl)methyl)piperazin-1-yl)-N-methylpicolinamide formate] | 300 to 3000 | 300 to 3000 | < 33 | > 3000 | > 3000 | 33 to 67
CCN1Cc2ccc(CN3CCN(c4ccc(C(=O)NC)nc4)CC3)cc2NC1=O [Compound 196, 5-(4-((3-ethyl-2-oxo-1,2,3,4-tetrahydroquinazolin-7-yl)methyl)piperazin-1-yl)-N-methylpicolinamide formate] | 300 to 3000 | 300 to 3000 | < 33 | > 3000 | > 3000 | 33 to 67
